Laboratory results taken from patent US7687486B2, “Selective estrogen receptor modulators” (Florida Agricultural & Mechanical University, priority 2003, dated 2010).
Counter-ions that a name gives are not always drawn. Like-named read-outs stand apart in the source and are kept apart here.

Assays:
[1] = system: MCF-7 breast cancer cell line; test: MCF-7 breast cancer cell proliferation assay (cell counting after about 72 hours); type: cell-based, human; settings: about 72 hours incubation, HCl salts, read-out: IC50 (micromolar scale) MCF-7 breast cancer cell line
Experimental: MCF-7 (ATCC HTB-22) cells, purchased from ATCC (Rockville, Md.), were grown in RPMI medium 1640 with 10% FBS (GIBCO, Grand Island, N.Y.) and 1% Antibiotic-Antimycotic (GIBCO, Grand Island, N.Y.) in an incubator (NUAIRE NU-1500, Plymouth, Minn.) with 5% CO2 and 95% air at about 37° Celsius. Cells were grown as monolayer, doubling time is from about 19 to about 24 hours. The stock solution of the test compound was prepared at 1 mg/ml drug concentration. The stock solution was diluted serially to obtain the desired drug concentrations, of from about 20 to about 200 μg/ml. Plates with twelve wells (5 ml capacity/well) were employed for all the experiments. In a typical experiment, each well contained 1×10^5 initial cells and about 100 μl drug solution in a total volume of about 2 ml media. The final concentrations of compounds were from about 0 to about 100 μg/ml in triplicate sample wells. The plates were incubated at 5% CO2 and 37° C. for about 72 hours. After incubation, cells were washed with PBS 1×, treated by 0.5 ml trypsin-EDTA for about 10 minutes and the cells were suspended by adding about 1.5 ml medium. Cells were counted by using a hemacytometer under a microscope. The data was converted to micromolar concentration using the various molecular weights and represent the mean values and standard errors.
Tables 1-4 illustrate the IC50 (50% inhibitory concentration) values of compounds described in this application against the MCF-7 breast cancer cell line.

advanced breast cancer = settings: cited from earlier work
breast cancer = settings: adjuvant therapy; cited from earlier work
[2] = Table 3, Structure IV compounds group
[3] = Table 2, Structure III compounds group
[4] = Table 1, Structure II compounds group

| IC50 [1, 2] | IC50 [1, 3] | IC50 [1, 4] | Molecule | other results |
| --- | --- | --- | --- | --- |
| 10.6 µM | – | – | 3-[2-pyrrolidinylamino]-ethoxy]-]-Δ^1,3,5(10)-estrien-17-one | – |
| – | 6.4 µM | – | 3-[2-pyrrolidinylamino]-ethoxy]-]-Δ^1,3,5(10)-estrien-17α-ethynyl-17βol | – |
| 7.5 µM | – | – | CCN(CC)CCOc1ccc2c(c1)CC[C@@H]1[C@@H]2CC[C@]2(C)C(=O)CC[C@@H]12 [3-[2-diethylamino]-ethoxy]-]-Δ^1,3,5(10)-estrien-17-one] | – |
| – | 7.3 µM | – | C#C[C@]1(O)CC[C@H]2[C@@H]3CCc4cc(OCCN(CC)CC)ccc4[C@H]3CC[C@@]21C [3-[2-diethylamino]-ethoxy]-]-Δ^1,3,5(10)-estrien-17α-ethynyl-17β-ol] | – |
| 9.2 µM | – | – | CC(C)N(CCOc1ccc2c(c1)CC[C@@H]1[C@@H]2CC[C@]2(C)C(=O)CC[C@@H]12)C(C)C [3-[2-diisopropylamino]-ethoxy]-]-Δ^1,3,5(10)-estrien-17-one] | – |
| – | 8.3 µM | – | C#CC1(O)CCC2C3CCc4cc(OCCN(C(C)C)C(C)C)ccc4C3CCC21C (stereo not drawn) [3-[2-diisopropylamino]-ethoxy]-]-Δ^1,3,5(10)-estrien-17α-ethynyl-17β-ol] | – |
| 37.8 µM | – | – | CN(C)CCOc1ccc2c(c1)CC[C@@H]1[C@@H]2CC[C@]2(C)C(=O)CC[C@@H]12 [3-[2-dimethylamino]-ethoxy]-]-Δ^1,3,5(10)-estrien-17-one] | – |
| – | 9.1 µM | – | C#CC1(O)CCC2C3CCc4cc(OCCN(C)C)ccc4C3CCC21C (stereo not drawn) [3-[2-dimethylamino]-ethoxy]-]-Δ^1,3,5(10)-estrien-17α-ethynyl-17β-ol] | – |
| 20.8 µM | – | – | C[C@]12CC[C@@H]3c4ccc(OCCN5CCOCC5)cc4CC[C@H]3[C@@H]1CCC2=O [3-[2-morpholinyl]-ethoxy]-]-Δ^1,3,5(10)-estrien-17-one] | – |
| – | 21.5 µM | – | C#CC1(O)CCC2C3CCc4cc(OCCN5CCOCC5)ccc4C3CCC21C (stereo not drawn) [3-[2-morpholinyl]-ethoxy]-]-Δ^1,3,5(10)-estrien-17α-ethynyl-17β-ol] | – |
| 5.1 µM | – | – | C[C@]12CC[C@@H]3c4ccc(OCCN5CCCCC5)cc4CC[C@H]3[C@@H]1CCC2=O [3-[2-piperidinyl]-ethoxy]-]-Δ^1,3,5(10)-estrien-17-one] | – |
| – | 6.1 µM | – | C#CC1(O)CCC2C3CCc4cc(OCCN5CCCCC5)ccc4C3CCC21C (stereo not drawn) [3-[2-piperidinyl]-ethoxy]-]-Δ^1,3,5(10)-estrien-17α-ethynyl-17β-ol] | – |
| 10.6 µM | 9.5 µM | 9 µM | CC/C(=C(\c1ccc(O)cc1)c1ccc(OCCN(C)C)cc1)c1ccccc1 [4-Hydroxytamoxifen HCl salt, Trans-4-Hydroxytamoxifen, reference compound] | – |
| – | – | 8.7 µM | CCN(CC)CCOc1ccc2c(c1)CC[C@@H]1[C@@H]2CC[C@]2(C)[C@@H](O)CC[C@@H]12 [(17β)-3-[2-diethylamino]-ethoxy]-]-Δ^1,3,5(10)-estrien-17-ol] | – |
| – | – | 5.6 µM | CC(C)N(CCOc1ccc2c(c1)CC[C@@H]1[C@@H]2CC[C@]2(C)[C@@H](O)CC[C@@H]12)C(C)C [(17β)-3-[2-diisopropylamino]-ethoxy]-]-Δ^1,3,5(10)-estrien-17-ol] | – |
| – | – | 16.2 µM | CN(C)CCOc1ccc2c(c1)CC[C@@H]1[C@@H]2CC[C@]2(C)[C@@H](O)CC[C@@H]12 [(17β)-3-[2-dimethylamino]-ethoxy]-Δ^1,3,5(10)-estrien-17-ol] | – |
| – | – | 19.8 µM | C[C@]12CC[C@@H]3c4ccc(OCCN5CCOCC5)cc4CC[C@H]3[C@@H]1CC[C@@H]2O [(17β)-3-[2-morpholinyl]-ethoxy]-]-Δ^1,3,5(10)-estrien-17-ol] | – |
| – | – | 4.1 µM | C[C@]12CC[C@@H]3c4ccc(OCCN5CCCCC5)cc4CC[C@H]3[C@@H]1CC[C@@H]2O [(17β)-3-[2-piperidinyl]-ethoxy]-]-Δ^1,3,5(10)-estrien-17-ol] | – |
| – | – | 10.8 µM | C[C@]12CC[C@@H]3c4ccc(OCCN5CCCC5)cc4CC[C@H]3[C@@H]1CC[C@@H]2O [(17β)-3-[2-pyrrolidinylamino]-ethoxy]-]-Δ^1,3,5(10)-estrien-17-ol] | – |
| – | – | – | CC/C(=C(\c1ccccc1)c1ccc(OCCN(C)C)cc1)c1ccccc1 [tamoxifen] | response rate (advanced breast cancer; tamoxifen 20 mg/day): 44% |
| – | – | – | CN(C)CCOc1ccc(/C(=C(/CCCl)c2ccccc2)c2ccccc2)cc1 [toremifene] | reduction in the recurrence of breast cancer (breast cancer): not found to exhibit a statistically significant reduction in the recurrence of breast cancer; response rate (advanced breast cancer; toremifene 60 mg/day): 50%; response rate (advanced breast cancer; toremifene 200 mg/day): 48% |
